Data on eleven compounds can be found in ChEMBL document CHEMBL1201862, “PubChem BioAssay data set” (2004).

Molecules are shown by their SMILES.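 Briefly, cells in 96-well plates were exposed to five compound concentrations for 48 h, and endpoints were estimated by linear interpolation. GI50 = concentration required for 50% inhibition of growth.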 Calls of active or inactive are those of the source. Rule as the data show it: active = GI50 up to about 1.1 µM and inactive = higher. A value given as a limit tells only on which side of the number the result lay.

Among the test systems are SK-MEL-2; OVCAR-8; HCT-116; RXF 393; M14; SNB-19; KM12; PC-3; U-251; MCF7; SF-295; UO-31; HCC 2998; OVCAR-3; CAKI-1; NCI-H522; NCI-H226; K562.
Holding throughout (assay): NCI anticancer screen, dose series, 48 h

For the compound `NC(=O)CN1CCN(c2nc(N3CCCC3)c3nc(Cl)c(NCc4ccccc4)nc3n2)CC1`, the GI50 in the test on SK-MEL-2 is 9.66 µM (inactive); with OVCAR-8 it was 15 µM (inactive); in the test with HCT-116 it was 8 µM (inactive); in the test on RXF 393, 7.96 µM (inactive); in the test with M14, 9.91 µM (inactive); in the test with SNB-19 it was 9.89 µM (inactive). For the same compound, the GI50 with KM12 is 10.6 µM (inactive); with PC-3 it was 11.8 µM (inactive); with U-251 it was 8.59 µM (inactive); in the test on MCF7 it was 8.87 µM (inactive); in the test on SF-295 it was 8.89 µM (inactive); in the test with UO-31, 10.7 µM (inactive). The GI50 was 8.38 µM (inactive) in the test with HCC 2998; 8.39 µM (inactive) with OVCAR-3; 17 µM (inactive) with CAKI-1; 10.4 µM (inactive) in the test on NCI-H522; 11.8 µM (inactive) with NCI-H226; 9.86 µM (inactive) in the test on K562.

Take `COc1ccc(/N=N/C(=N/NC(=O)c2cc(Cl)ccc2C(=O)c2ccccc2)c2ccc(N(CCC#N)CCC#N)cc2C)cc1`: the GI50 was 6.9 µM (inactive) in the test on SK-MEL-2; 16.1 µM (inactive) in the test with OVCAR-8; 13.1 µM (inactive) with HCT-116; 3.8 µM (inactive) with RXF 393; 18.2 µM (inactive) with M14; 25.9 µM (inactive) in the test on SNB-19. Also, the GI50 is 21.4 µM (inactive) in the test on KM12; 11.4 µM (inactive) with PC-3; 16.4 µM (inactive) in the test on U-251; 25.4 µM (inactive) in the test on MCF7; 26.1 µM (inactive) with SF-295; 20.3 µM (inactive) in the test on UO-31. For the same compound, the GI50 in the test on HCC 2998 is 18.9 µM (inactive); in the test on OVCAR-3, 5.04 µM (inactive); with CAKI-1, 21.3 µM (inactive); in the test with NCI-H226, 16.2 µM (inactive); in the test with K562 it was 12.9 µM (inactive).

On to `COc1cc2c(cc1O)c(O)cc1c3cc(OC)c(OC)cc3c[n+](C)c21`, for which the GI50 with SK-MEL-2 is > 100 µM (inactive); in the test on OVCAR-8, 8.87 µM (inactive); with HCT-116, 23.1 µM (inactive); in the test with RXF 393, > 67.5 µM (inactive); in the test on M14, > 100 µM (inactive); in the test on SNB-19, 1.13 µM (inactive). Further, the GI50 in the test with KM12 was > 100 µM (inactive); with PC-3 it was > 78.2 µM (inactive); in the test on U-251, 0.582 µM (active); with MCF7, 8.73 µM (inactive); in the test with SF-295, 18.7 µM (inactive); in the test on UO-31 it was 53.5 µM (inactive). In addition, the GI50 in the test on HCC 2998 is > 91 µM (inactive); in the test with OVCAR-3, 20.7 µM (inactive); in the test on CAKI-1, > 54 µM (inactive); in the test with NCI-H522, 0.0225 µM (active); in the test on NCI-H226, 9.62 µM (inactive); in the test on K562, 5.04 µM (inactive).

On to `O=c1cc(N2CCOCC2)[nH]c(=O)n1-c1cccc(Cl)c1`, for which the GI50 in the test on SK-MEL-2, with OVCAR-8, in the test with HCT-116, in the test with RXF 393, in the test on M14 and with SNB-19 was > 100 µM (inactive) each time. The GI50 with KM12, in the test with PC-3, in the test with U-251, with MCF7, in the test on SF-295 and with HCC 2998 was > 100 µM (inactive) throughout. Also, the GI50 in the test with OVCAR-3, in the test with CAKI-1, in the test on NCI-H522, with NCI-H226 and in the test on K562 was > 100 µM (inactive) in each case.

Regarding `COc1ccc2[nH]cc(C(=O)C(=O)NC34CC5CC(CC(C5)C3)C4)c2c1`, the GI50 was 57.8 µM (inactive) in the test with SK-MEL-2; 35.6 µM (inactive) in the test with OVCAR-8; 20.6 µM (inactive) with HCT-116; 3.22 µM (inactive) with RXF 393; 13.9 µM (inactive) with M14; 53.5 µM (inactive) with SNB-19. Besides, the GI50 with KM12 is > 26.9 µM (inactive); in the test with PC-3, 38.3 µM (inactive); in the test on U-251, 13.5 µM (inactive); in the test on MCF7, 10.1 µM (inactive); in the test on SF-295, 6.9 µM (inactive); in the test on UO-31, > 100 µM (inactive). Further, the GI50 in the test with HCC 2998 was 28.1 µM (inactive); in the test with OVCAR-3, 8.97 µM (inactive); in the test with CAKI-1, > 45.4 µM (inactive); in the test with NCI-H522 it was 36.7 µM (inactive); in the test with NCI-H226 it was 22.9 µM (inactive); in the test with K562 it was 4.44 µM (inactive).

As to `CC1CC(=O)Nc2cc(Cl)ccc2N1C(=O)C1CC1` (centres undefined), the GI50 in the test with SK-MEL-2, with OVCAR-8, in the test on HCT-116, in the test with RXF 393, in the test on M14 and with SNB-19 was > 100 µM (inactive) in each case. Also, the GI50 in the test with KM12, with PC-3, in the test with U-251, with MCF7, with SF-295 and in the test with UO-31 was > 100 µM (inactive) each time. Further, the GI50 in the test with HCC 2998, in the test with OVCAR-3, in the test with CAKI-1, in the test with NCI-H522, in the test with NCI-H226 and with K562 was > 100 µM (inactive) throughout.

On to `S=C(/N=c1\sc(Nc2ccc(Cl)cc2)nc2sc3c(c12)CCN(N1CCc2c(sc4nc(Nc5ccc(Cl)cc5)s/c(=N\C(=S)Nc5ccc(Cl)cc5)c24)C1)C3)Nc1ccc(Cl)cc1`, for which the GI50 with SK-MEL-2 is 23.4 µM (inactive); in the test on OVCAR-8, 43.1 µM (inactive); in the test on HCT-116, 17.9 µM (inactive); in the test on RXF 393 it was 18.9 µM (inactive); with M14, 60 µM (inactive); in the test on SNB-19 it was 55.2 µM (inactive). In addition, the GI50 is 30.3 µM (inactive) with PC-3; 25.1 µM (inactive) in the test on U-251; 40.6 µM (inactive) with MCF7; 38.7 µM (inactive) in the test on SF-295; 62.1 µM (inactive) in the test on UO-31; 42.3 µM (inactive) in the test with OVCAR-3. Besides, the GI50 in the test on NCI-H522 is 96.2 µM (inactive); in the test with NCI-H226, 78.2 µM (inactive).

In the case of `Cc1ccc2nc3c(=O)[nH]c(=O)nc-3n(C)c2c1C`, the GI50 in the test with SK-MEL-2, in the test on OVCAR-8, in the test on HCT-116, with RXF 393, with M14 and with SNB-19 was > 100 µM (inactive) each time. Further, the GI50 with KM12, with PC-3, in the test with U-251, with MCF7, with SF-295 and with UO-31 was > 100 µM (inactive) throughout. The GI50 with HCC 2998, in the test with OVCAR-3, with CAKI-1, with NCI-H522, with NCI-H226 and in the test on K562 was > 100 µM (inactive) in each case.

Regarding `COc1ccc(OC)c2c(Nc3ccc(S(=O)(=O)O)c4cc(S(=O)(=O)O)cc(S(=O)(=O)O)c34)cc(C)nc12`, the GI50 in the test on SK-MEL-2, in the test on OVCAR-8, in the test with HCT-116, with RXF 393, with M14 and in the test on KM12 was > 100 µM (inactive) in each case. Besides, the GI50 was > 100 µM (inactive) with PC-3; > 100 µM (inactive) in the test with U-251; > 100 µM (inactive) with MCF7; > 100 µM (inactive) in the test with SF-295; > 100 µM (inactive) in the test with UO-31; 10.8 µM (inactive) with HCC 2998. For the same compound, the GI50 in the test on OVCAR-3, in the test with CAKI-1, with NCI-H522, in the test on NCI-H226 and in the test with K562 was > 100 µM (inactive) each time.

As to `CCCCCCCCCCCCCCCCOP(=O)(O)OP(=O)(O)OCC1OC(n2ccc(N)nc2=O)CC1O` (centres undefined), the GI50 with SK-MEL-2, with OVCAR-8, in the test with HCT-116, with RXF 393, in the test on M14 and with SNB-19 was > 100 µM (inactive) each time. Besides, the GI50 with KM12, in the test with PC-3, in the test on U-251, in the test on MCF7, in the test on SF-295 and with UO-31 was > 100 µM (inactive) in each case. The GI50 with HCC 2998, with OVCAR-3, in the test on CAKI-1, in the test with NCI-H522, in the test on NCI-H226 and with K562 was > 100 µM (inactive) each time.

Take `CN(C)CCCNc1c2ccccc2[n+]([O-])c2ccccc12`: the GI50 is > 100 µM (inactive) with SK-MEL-2; 41.9 µM (inactive) in the test on OVCAR-8; 34 µM (inactive) in the test on HCT-116; 47.8 µM (inactive) in the test with RXF 393; > 100 µM (inactive) in the test on M14; 39.3 µM (inactive) in the test on KM12. Further, the GI50 in the test on PC-3 was 46.5 µM (inactive); in the test on U-251, 62.8 µM (inactive); with MCF7, 31.6 µM (inactive); in the test with SF-295, 54 µM (inactive); in the test on UO-31 it was 34.5 µM (inactive); in the test on OVCAR-3, 66.8 µM (inactive). Besides, the GI50 was 49.4 µM (inactive) with CAKI-1, 28.2 µM (inactive) in the test with NCI-H522, 22 µM (inactive) with NCI-H226 and 31.4 µM (inactive) in the test with K562.
